US10645928B2, “Pesticidally active polycyclic derivatives with sulfur containing substituents” (Syngenta Participations AG, priority 2014, dated 2020)

What was measured:
Type in all cases: in vivo
[1] = tested on: Bemisia tabaci (Cotton White Fly); experiment: Example B1: Bemisia tabaci, sprayed cotton leaf discs, mortality; conditions: foliar, 144 h, application rate of 200 ppm, adult white flies, 6 days after incubation
Protocol: Cotton leaf discs were placed on agar in 24-well microtiter plates and sprayed with aqueous test solutions prepared from 10,000 ppm DMSO stock solutions. After drying the leaf discs were infested with adult white flies. The samples were checked for mortality 6 days after incubation.

[2] = tested on: Frankliniella occidentalis (Western Flower Thrips); experiment: Example B7: Frankliniella occidentalis, sprayed sunflower leaf discs, mortality; conditions: foliar, 168 h, application rate of 200 ppm, population of mixed ages, 7 days after infestation
Protocol: (§1) Sunflower leaf discs were placed on agar in 24-well microtiter plates and sprayed with aqueous test solutions prepared from 10,000 DMSO stock solutions. After drying the leaf discs were infested with a Frankliniella population of mixed ages. The samples were assessed for mortality 7 days after infestation.

[3] = tested on: Myzus persicae (Green Peach Aphid); experiment: Example B8: Myzus persicae, sprayed sunflower leaf discs, mortality; conditions: foliar, 144 h, application rate of 200 ppm, leaf disc spray, aphid population of mixed ages, 6 days after infestation
Protocol: Sunflower leaf discs were placed onto agar in a 24-well microtiter plate and sprayed with aqueous test solutions prepared from 10,000 ppm DMSO stock solutions. After drying, the leaf discs were infested with an aphid population of mixed ages. The samples were assessed for mortality 6 days after infestation.

[4] = tested on: Plutella xylostella (Diamond Back Moth); experiment: Example B10: Plutella xylostella, treated artificial diet, growth inhibition; conditions: 120 h, application rate of 200 ppm, L2 larvae, 5 days after infestation
Method in brief: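 Artificial diet treated with aqueous dilutions prepared from 10,000 ppm DMSO stocks, dried, then infested with 10-15 L2 larvae per well. Growth inhibition scored against untreated samples 5 days after infestation.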

[5] = tested on: Plutella xylostella (Diamond Back Moth); experiment: Example B12: Plutella xylostella, treated artificial diet, mortality; conditions: 120 h, application rate of 200 ppm, L2 larvae, 5 days after infestation
Protocol: (§2) 24-well microtiter plates with artificial diet were treated with aqueous test solutions prepared from 10,000 ppm DMSO stock solutions by pipetting. After drying, the plates were infested with L2 larvae (10 to 15 per well). The samples were assessed for mortality 5 days after infestation.

[6] = tested on: Plutella xylostella (Diamond Back Moth); experiment: Example B13: Plutella xylostella, treated artificial diet, mortality and growth inhibition; conditions: 120 h, application rate of 200 ppm, L2 larvae, 5 days after infestation, read-out: effect in at least one of the two categories (mortality or growth inhibition)
Protocol: as §2, with “mortality and growth inhibition in comparison to untreated samples” for “mortality”

[7] = tested on: Spodoptera littoralis (Egyptian Cotton Leaf Worm); experiment: Example B16: Spodoptera littoralis, sprayed cotton leaf discs, mortality; conditions: foliar, 72 h, application rate of 200 ppm, L1 larvae, 3 days after infestation
Protocol: Cotton leaf discs were placed onto agar in 24-well microtiter plates and sprayed with aqueous test solutions prepared from 10,000 ppm DMSO stock solutions. After drying the leaf discs were infested with five L1 larvae. The samples were assessed for mortality 3 days after infestation.

[8] = tested on: Spodoptera littoralis (Egyptian Cotton Leaf Worm); experiment: Example B17: Spodoptera littoralis, sprayed cotton leaf discs, mortality, anti-feeding effect and growth inhibition; conditions: foliar, 72 h, application rate of 200 ppm, L1 larvae, 3 days after infestation, read-out: control (at least one of mortality, anti-feedant effect, growth inhibition)
Method in brief: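 Cotton leaf discs on agar sprayed with aqueous dilutions of 10,000 ppm DMSO stocks, dried, then infested with five L1 larvae. Mortality, anti-feeding and growth inhibition scored against untreated discs 3 days after infestation. Control recorded when any one category exceeds the untreated sample.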

[9] = tested on: Spodoptera littoralis (Egyptian Cotton Leaf Worm); experiment: Example B18: Spodoptera littoralis, compound in agar absorbed by lettuce roots, mortality, anti-feedant effect and growth inhibition; conditions: 144 h, test rate of 12.5 ppm, uptake by lettuce roots, Spodoptera eggs, 6 days after infestation, read-out: effect in at least one of the three categories (mortality, anti-feeding, or growth inhibition)
Method in brief: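 Compound from 10,000 ppm DMSO stock mixed into agar; lettuce seeds grew 7 days, taking compound up via roots into the lid plate. Cut leaves infested with Spodoptera eggs; mortality, anti-feedant effect and growth inhibition scored against untreated samples 6 days after infestation.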

[10] = tested on: Spodoptera littoralis (Egyptian Cotton Leaf Worm); experiment: Example B19: Spodoptera littoralis, compound in agar absorbed by lettuce roots, anti-feedant effect; conditions: 144 h, test rate of 12.5 ppm, uptake by lettuce roots, Spodoptera eggs, 6 days after infestation, read-out: anti-feeding
Method in brief: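 Compound from DMSO stock mixed into agar; lettuce seedlings took it up via roots over 7 days, then cut leaves were infested with Spodoptera eggs. Anti-feedant effect scored 6 days after infestation relative to untreated samples.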

[11] = tested on: Spodoptera littoralis (Egyptian Cotton Leaf Worm); experiment: Example B20: Spodoptera littoralis, compound in agar absorbed by lettuce roots, mortality; conditions: 144 h, test rate of 12.5 ppm, uptake by lettuce roots, Spodoptera eggs, 6 days after infestation
Method in brief: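 Compound from a 10,000 ppm DMSO stock mixed into agar; lettuce grown on it for 7 days to take up compound via roots, then leaves cut into lid plate. Spodoptera eggs applied on humid blotting paper; mortality scored 6 days after infestation.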

[12] = tested on: Tetranychus urticae (Two-Spotted Spider Mite); experiment: Example B21: Tetranychus urticae, sprayed bean leaf discs, mortality; conditions: foliar, 192 h, application rate of 200 ppm, mixed population (mobile stages), 8 days after infestation
Protocol: Bean leaf discs on agar in 24-well microtiter plates were sprayed with aqueous test solutions prepared from 10,000 ppm DMSO stock solutions. After drying the leaf discs were infested with a mite population of mixed ages. The samples were assessed for mortality on mixed population (mobile stages) 8 days after infestation.

[13] = tested on: Thrips tabaci (Onion Thrips); experiment: Example B22: Thrips tabaci, sprayed sunflower leaf discs, mortality; conditions: foliar, 144 h, application rate of 200 ppm, thrips population of mixed ages, 6 days after infestation
Protocol: as §1, with “10,000 ppm” for “10,000”, “thrips” for “Frankliniella”, “6” for “7”

CCS(=O)(=O)c1cc(C(C#N)CCBr)cnc1-c1cn2cnc(C(F)(F)F)cc2n1 (stereo not shown) [Compound P13, 4-bromo-2-[5-ethylsulfonyl-6-[7-(trifluoromethyl)imidazo[1,2-c]pyrimidin-2-yl]-3-pyridyl]butanenitrile]
≥ 80%: mortality at 200 ppm [1] | mortality at 200 ppm [2] | mortality at 200 ppm [3] | inhibition at 200 ppm [4] | mortality at 200 ppm [5] | percent effect (mortality or growth inhibition) at 200 ppm [6] | mortality at 200 ppm [7] | percent control (mortality, anti-feedant effect or growth inhibition) at 200 ppm [8] | percent effect (mortality, anti-feeding or growth inhibition) at 12.5 ppm [9] | pest or weed control at 12.5 ppm [10] | mortality at 12.5 ppm [11] | mortality at 200 ppm [12] | mortality at 200 ppm [13]
